In patent publication US7700611B2, “Synthesis and crystalline forms of NPY5 antagonist” (Merck Sharp & Dohme Corp., priority 2005, dated 2010):

Assay: Thermodynamic stability of crystalline polymorphs (enantiotropic transition, storage)
Assay type: physicochemical
Details: for enantiotropic transition temperature between Form A and Form C: free base polymorphs; for thermodynamic stability of the crystalline form: relative to other crystalline forms of Compound I, temperature range as stated; for solid form stability at room temperature / on storage: room temperature (22° C.)

| Structure (SMILES) | enantiotropic transition temperature between Form A and Form C | thermodynamic stability of the crystalline form | solid form stability at room temperature / on storage |
| --- | --- | --- | --- |
| O=C1O[C@]2(CC[C@H](C(=O)Nc3ccn(-c4ccccc4F)n3)CC2)c2cnccc21 [Form A, trans-N-[1-(2-fluorophenyl)-3-pyrazolyl]-3-oxospiro[6-azaisobenzofuran-1(3H),1′-cyclohexane]-4′-carboxamide] | approximately 81 °C | most thermodynamically stable crystalline form of compound (I) above 81 °C | instability |
| O=C1O[C@]2(CC[C@H](C(=O)Nc3ccn(-c4ccccc4F)n3)CC2)c2cnccc21 [Form C, trans-N-[1-(2-fluorophenyl)-3-pyrazolyl]-3-oxosiro[6-azaisobenzofuran-1(3H),1′-cyclohexane]-4′-carboxamide] | approximately 81 °C | most thermodynamically stable crystalline form of Compound I below 81 °C | not subject to transforming to another crystal form |
